Earlier results as cited in patent US20230181690A1, “METHODS FOR TREATING ANEMIA USING AN ACTRIIB LIGAND TRAP AND FEDRATINIB” (Celgene Corporation, priority 2020, published 2023).
Where a chain is given by its changes, count along the chain named. One block for each molecule: values may come before it.

Tests used:
[1] = system: MPN-associated myelofibrosis
[2] = system: cell models expressing mutationally active JAK2 or FLT3
[3] = system: cell models expressing mutationally active JAK2 or FLT3; remark: listed apart in the source
[4] = system: JAK2V617F-driven myeloproliferative disease; conditions: mouse, in vivo
[5] = system: intermediate-2 or high-risk MF; conditions: previously untreated patients with intermediate-2 or high-risk MF
GDF-11 = molecular target: T1, GDF-11 (Homo sapiens, UniProt O95390)
T1 sequence (O95390 299-407): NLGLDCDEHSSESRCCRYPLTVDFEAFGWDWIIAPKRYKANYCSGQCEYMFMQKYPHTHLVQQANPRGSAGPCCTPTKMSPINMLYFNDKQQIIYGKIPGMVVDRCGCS

exacerbation of anemia ([1]; patients with MPN-associated myelofibrosis): can exacerbate the anemia
Molecule: N#CC[C@H](C1CCCC1)n1cc(-c2ncnc3[nH]ccc23)cn1 [ruxolitinib]

Molecule: Cc1cnc(Nc2ccc(OCCN3CCCC3)cc2)nc1Nc1cccc(S(=O)(=O)NC(C)(C)C)c1 [fedratinib, N-tert-butyl-3-[(5-methyl-2-{4-[2-(pyrrolidin-1-yl)ethoxy]anilino}pyrimidin-4-yl)amino]benzenesulfonamide]
potency for JAK2 over family members JAK1, JAK3 and TYK2 (Janus Kinase 2 (JAK2)): higher potency for JAK2 over family members JAK1, JAK3 and tyrosine kinase 2 (TYK2)
phosphorylation of STAT3/5 proteins [2]: reduced phosphorylation
cell proliferation [3]: inhibited cell proliferation
disease-associated symptoms [4]: improved disease-associated symptoms, including reduction of white blood cells, hematocrit, splenomegaly, and fibrosis
phosphorylation of STAT3/5 [4]: blocked phosphorylation of STAT3/5
clinical efficacy [5]: demonstrated clinical efficacy
thrombocytopenia and anemia associated with therapy ([1]; patients): can be associated with moderate to severe thrombocytopenia and anemia

binding to activin relative to ActRIIB(20-134)-Fc (activin): reduced binding
binding to GDF-11 relative to ActRIIB(20-134)-Fc (GDF-11): reduced binding
B1: ActRIIB(20-119)-Fc: ActRIIB-Fc fusion protein containing amino acids 20-119 of SEQ ID NO:14 (SEQ ID NO:18) (protein)
chain: GRGEAETRECIYYNANWELERTNQSGLERCEGEQDKRLHCYASWRNSSGTIELVKKGCWLDDFNCYDRQECVATEENPQVYFCCCEGNFCNERFTHLPEA
modifications: human ActRIIB soluble (extracellular), processed polypeptide sequence with the C-terminal 15 aa deleted (aa 20-119 of SEQ ID NO14)

affinity for GDF-11 (GDF-11): relatively low affinity
B2: A64: Fc fusion protein having the ActRIIB extracellular sequence with an alanine at position 64 of SEQ ID NO:2 (protein)
chain: SGRGEAETRECIYYNANWELERTNQSGLERCEGEQDKRLHCYASWANSSGTIELVKKGCWLDDFNCYDRQECVATEENPQVYFCCCEGNFCNERFTHLPEAGGPEVTYEPPPTAPTGGGTHTCPPCPAPELLGGPSVFLFPPKPKDTLMISRTPEVTCVVVDVSHEDPEVKFNWYVDGVEVHNAKTKPREEQYNSTYRVVSVLTVLHQDWLNGKEYKCKVSNKALPVPIEKTISKAKGQPREPQVYTLPPSREEMTKNQVSLTCLVKGFYPSDIAVEWESNGQPENNYKTTPPVLDSDGSFFLYSKLTVDKSRWQQGNVFSCSVMHEALHNHYTQKSLSLSPGK
modifications: fusion protein comprising a soluble extracellular domain of ActRIIB (A64; SEQ ID NO 3) fused to an Fc domain
affinity for activin (activin): relatively low affinity

affinity for GDF-11 (GDF-11): low nanomolar to high picomolar range
B3: R64: Fc fusion protein with an arginine at position 64 of the ActRIIB precursor amino acid sequence (protein)
chain: B2 chain with A46R
modifications: fusion protein comprising a soluble extracellular domain of ActRIIB (R64; SEQ ID NO15) fused to an Fc domain
affinity for activin (activin): low nanomolar to high picomolar range
